For data set [1] the following is noted: cited from earlier work.
The test system of another data set is HepG2 cells. In words: In vitro cytotoxicity on HepG2 cells. Format: cell-based. The settings on record: 50 μM, 24 h, MTT.

Structures are written as SMILES.

In the case of `Nc1c2c(nc3ccccc13)CCCC2` [tacrine, Tacrine], the “patients with increased serum alanine aminotransferase levels” value in data set [1] is recorded as “about 30%”. The “inhibitory rate (%) on HepG2 cells” value in the data set with HepG2 cells is 49.91 ± 0.61%.

The values are drawn from publication PMC8047743 (ACS Omega, 2021).
